Reference: US20260159512A1, “BCAT2 INHIBITORS” (AGIOS PHARMACEUTICALS, INC., priority 2021, published 2026)

Experiments:
Details in all cases: average where tested multiple times
hBCAT1 = target: T1, hBCAT1 (Homo sapiens, UniProt P54687); test: BCAT1 in vitro enzyme inhibition assay (resazurin/diaphorase-coupled fluorescence); type: biochemical
T1 sequence (P54687 1-386): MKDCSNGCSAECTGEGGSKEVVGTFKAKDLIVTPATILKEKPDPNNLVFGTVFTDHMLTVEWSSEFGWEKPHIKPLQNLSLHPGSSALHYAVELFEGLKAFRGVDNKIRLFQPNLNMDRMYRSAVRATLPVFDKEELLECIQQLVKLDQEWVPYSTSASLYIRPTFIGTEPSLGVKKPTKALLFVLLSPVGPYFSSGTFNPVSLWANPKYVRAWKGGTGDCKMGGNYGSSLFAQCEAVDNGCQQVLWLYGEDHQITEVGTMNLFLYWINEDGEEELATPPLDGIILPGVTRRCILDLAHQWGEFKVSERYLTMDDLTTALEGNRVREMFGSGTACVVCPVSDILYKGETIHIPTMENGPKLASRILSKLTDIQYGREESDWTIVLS
Outline: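 Human BCAT1 activity read by resazurin/diaphorase-coupled fluorescence. Compounds added from 50× DMSO stocks at 1:50, giving 10-point 3-fold titrations from 100 μM top final concentration. Run in technical duplicate; repeat tests averaged.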

BCAT2 [1] = target: T2, BCAT2 (Homo sapiens, UniProt O15382); test: BCAT2 in vitro cell inhibition using engineered A549 cells (KMV cell assay, 13C6-KMV by LC-MS/MS); type: cell-based; set-up: The result was an engineered A549 cell line that expressed endogenous BCAT2; endogenous in cells; host or cells: A549 cells with MUT and BCAT1 knocked out by CRISPR/CAS9; key to BCAT2 Cell Inhibition: A: less than or equal to 0.100 μM; B: greater than 0.100 and less than or equal to 0.500 μM; C: greater than 0.500 and less than or equal to 1.000 μM; d: greater than 1.000 μM; E: no fit
T2 sequence (O15382 28-392): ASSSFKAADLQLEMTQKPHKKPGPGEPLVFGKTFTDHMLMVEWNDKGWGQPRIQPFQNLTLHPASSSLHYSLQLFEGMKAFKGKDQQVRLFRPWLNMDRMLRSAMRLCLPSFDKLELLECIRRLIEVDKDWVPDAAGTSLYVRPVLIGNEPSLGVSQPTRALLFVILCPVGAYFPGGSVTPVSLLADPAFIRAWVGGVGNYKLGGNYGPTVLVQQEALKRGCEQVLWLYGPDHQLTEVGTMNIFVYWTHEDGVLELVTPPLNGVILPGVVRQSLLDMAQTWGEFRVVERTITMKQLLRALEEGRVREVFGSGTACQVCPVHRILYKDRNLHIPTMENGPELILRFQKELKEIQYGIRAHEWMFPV

BCAT2 [2] = target: T2, BCAT2; test: BCAT2 in vitro enzyme inhibition assay (resazurin/diaphorase-coupled fluorescence); type: biochemical
Outline: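 Coupled fluorescence readout: glutamate formed from L-leucine/α-ketoglutarate transamination drives GDH/NAD/diaphorase reduction of resazurin (Ex 540/Em 590). Human BCAT2 was first exposed 1 h at room temperature to compound, top final 100 μM in 3-fold, 10-point series; substrate reaction ran 1 h before SDS quench, in technical duplicate with DMSO max and enzyme-free min controls.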

| IC50 (hBCAT1) [µM] | IC50 (BCAT2 [1]) [µM] | IC50 (BCAT2 [2]) [µM] | BCAT2 Cell Inhibition (BCAT2 [1]) | Compound |
| --- | --- | --- | --- | --- |
| 1 to 5 | ≤ 0.1 | ≤ 0.1 |  | C#Cc1ccc(C(=O)N[C@H]2CCC[C@@H](n3c(CC(C)C)nc4cnc(-c5nc[nH]n5)cc43)C2)s1 [Example 341, 5-ethynyl-N-((1S,3R)-3-(2-isobutyl-6-(1H-1,2,4-triazol-3-yl)-1H-imidazo[4,5-c]pyridin-1-yl)cyclohexyl)thiophene-2-carboxamide] |
| < 0.5 | ≤ 0.1 | ≤ 0.1 |  | Cc1coc(-c2cc3c(cn2)nc(-c2ccccc2F)n3[C@@H]2CCC[C@H](NC(=O)c3ncc(Cl)s3)[C@H]2O)n1 [Example 238, 5-chloro-N-((1S,2R,3R)-3-(2-(2-fluorophenyl)-6-(4-methyloxazol-2-yl)-1H-imidazo[4,5-c]pyridin-1-yl)-2-hydroxycyclohexyl)thiazole-2-carboxamide] |
| < 0.5 | ≤ 0.1 | ≤ 0.1 |  | O=C(N[C@H]1CCC[C@@H](n2c(-c3ncccc3F)nc3cnc(-n4nccn4)cc32)C1)c1ncc(C(F)F)s1 [Example 24, 5-(difluoromethyl)-N-((1S,3R)-3-(2-(3-fluoropyridin-2-yl)-6-(2H-1,2,3-triazol-2-yl)-1H-imidazo[4,5-c]pyridin-1-yl)cyclohexyl)thiazole-2-carboxamide] |
| 0.5 to 1 | ≤ 0.1 | ≤ 0.1 |  | O=C(N[C@H]1CCC[C@@H](n2c(-c3ncccc3F)nc3cnc(-n4nccn4)cc32)C1)c1ncc(C(F)(F)F)s1 [Example 65, N-((1S,3R)-3-(2-(3-fluoropyridin-2-yl)-6-(2H-1,2,3-triazol-2-yl)-1H-imidazo[4,5-c]pyridin-1-yl)cyclohexyl)-5-(trifluoromethyl)thiazole-2-carboxamide] |
| < 0.5 | ≤ 0.1 | ≤ 0.1 |  | O=C(N[C@H]1C[C@H](O)C[C@@H](n2c(-c3ccccc3F)nc3cnc(-c4ccn[nH]4)cc32)C1)c1ncc(Cl)s1 (single isomer, unassigned) [Example 258] |
| 1 to 5 |  | 0.1 to 0.5 | E | O=C(O)Cc1ccccc1-c1nc2cnc(-n3nccn3)cc2n1[C@@H]1CCC[C@H](NC(=O)c2ncc(C(F)F)s2)C1 [Example 96, 2-(2-(1-((1R,3S)-3-(5-(difluoromethyl)thiazole-2-carboxamido)cyclohexyl)-6-(2H-1,2,3-triazol-2-yl)-1H-imidazo[4,5-c]pyridin-2-yl)phenyl)acetic acid] |
| < 0.5 | ≤ 0.1 | ≤ 0.1 |  | CO[C@@H]1C[C@@H](NC(=O)c2ncc(Cl)s2)C[C@@H](n2c(CC(C)C)nc3cnc(-c4nc[nH]n4)cc32)C1 (stereo in doubt) [Example 414, 5-chloro-N-((1S,3R,5R)-3-(2-isobutyl-6-(1H-1,2,4-triazol-3-yl)-1H-imidazo[4,5-c]pyridin-1-yl)-5-methoxycyclohexyl)thiazole-2-carboxamide] |
| > 5 |  | > 1 | E | Cn1nccc1-c1nc2cnc(-n3ccnn3)cc2n1[C@@H]1CCC[C@H](NC(=O)c2ncc(C(F)F)s2)C1 [Example 44, 5-(difluoromethyl)-N-((1S,3R)-3-(2-(1-methyl-1H-pyrazol-5-yl)-6-(1H-1,2,3-triazol-1-yl)-1H-imidazo[4,5-c]pyridin-1-yl)cyclohexyl)thiazole-2-carboxamide] |
| < 0.5 | ≤ 0.1 | ≤ 0.1 |  | O=C(NC1CCCC(n2c(-c3ncccc3F)nc3cnc(-c4ccccn4)cc32)C1O)c1ncc(Cl)s1 (stereo not drawn) [Example 220, 5-chloro-N-(3-(2-(3-fluoropyridin-2-yl)-6-(pyridin-2-yl)-1H-imidazo[4,5-c]pyridin-1-yl)-2-hydroxycyclohexyl)thiazole-2-carboxamide] |
| < 0.5 | ≤ 0.1 | ≤ 0.1 |  | COc1cccc(-c2nc3cnc(-c4nc[nH]n4)cc3n2[C@@H]2CCC[C@H](NC(=O)c3ccc(Cl)s3)C2)c1F [Example 348, 5-chloro-N-((1S,3R)-3-(2-(2-fluoro-3-methoxyphenyl)-6-(1H-1,2,4-triazol-3-yl)-1H-imidazo[4,5-c]pyridin-1-yl)cyclohexyl)thiophene-2-carboxamide] |
| 0.5 to 1 | 0.1 to 0.5 | ≤ 0.1 |  | CO[C@@H]1C[C@@H](NC(=O)c2ncc(Cl)s2)C[C@@H](n2c(CC(C)C)nc3cnc(-c4ccccn4)cc32)C1 (stereo in doubt) [Example 426, 5-chloro-N-((1S,3R,5R)-3-(2-isobutyl-6-(pyridin-2-yl)-1H-imidazo[4,5-c]pyridin-1-yl)-5-methoxycyclohexyl)thiazole-2-carboxamide] |
| 1 to 5 | > 1 | 0.1 to 0.5 |  | CC(=O)N1C[C@@H](NC(=O)c2ncc(C(F)F)s2)C[C@@H](n2c(-c3ccccc3F)nc3cnc(-c4ncco4)cc32)C1 [Example 127, N-((3S,5R)-1-acetyl-5-(2-(2-fluorophenyl)-6-(oxazol-2-yl)-1H-imidazo[4,5-c]pyridin-1-yl)piperidin-3-yl)-5-(difluoromethyl)thiazole-2-carboxamide] |
| > 5 |  | > 1 | E | CC(C)Cc1nc2cnc(-c3nc[nH]n3)cc2n1[C@@H]1C[C@H](NC(=O)c2ncc(Cl)s2)CN(C)C1 (single isomer, unassigned) [Example 135] |
| < 0.5 | ≤ 0.1 | ≤ 0.1 |  | COc1ccccc1-c1nc2cnc(-c3nc[nH]n3)cc2n1[C@@H]1CCC[C@H](NC(=O)c2ncc(Cl)s2)C1 [Example 352, 5-chloro-N-((1S,3R)-3-(2-(2-methoxyphenyl)-6-(1H-1,2,4-triazol-3-yl)-1H-imidazo[4,5-c]pyridin-1-yl)cyclohexyl)thiazole-2-carboxamide] |
| < 0.5 | ≤ 0.1 | ≤ 0.1 |  | CC(C)Cc1nc2cnc(-n3nccn3)cc2n1[C@@H]1CCC[C@H](NC(=O)c2ncc(Cl)s2)C1 [Example 84, 5-chloro-N-((1S,3R)-3-(2-isobutyl-6-(2H-1,2,3-triazol-2-yl)-1H-imidazo[4,5-c]pyridin-1-yl)cyclohexyl)thiazole-2-carboxamide] |
| < 0.5 | 0.1 to 0.5 | ≤ 0.1 |  | CC(=O)N1CC(NC(=O)c2ncc(C(F)F)s2)CC(n2c(-c3ncccc3F)nc3cnc(-n4nccn4)cc32)C1 (stereo not drawn) [Example 119, N-(1-acetyl-5-(2-(3-fluoropyridin-2-yl)-6-(2H-1,2,3-triazol-2-yl)-1H-imidazo[4,5-c]pyridin-1-yl)piperidin-3-yl)-5-(difluoromethyl)thiazole-2-carboxamide] |
| < 0.5 | ≤ 0.1 | ≤ 0.1 |  | C#Cc1ccc(C(=O)NC2CC(n3c(-c4ccccc4F)nc4cnc(-c5ncco5)cc43)CN(C)C2)s1 (stereo not drawn) [Example 116, 5-ethynyl-N-(5-(2-(2-fluorophenyl)-6-(oxazol-2-yl)-1H-imidazo[4,5-c]pyridin-1-yl)-1-methylpiperidin-3-yl)thiophene-2-carboxamide] |
| < 0.5 | 0.1 to 0.5 | ≤ 0.1 |  | CC(C)Cc1nc2cnc(-c3cccc(F)n3)cc2n1[C@@H]1CCC[C@H](NC(=O)c2ncc(Cl)s2)[C@H]1O [Example 209, 5-chloro-N-((1S,2R,3R)-3-(6-(6-fluoropyridin-2-yl)-2-isobutyl-1H-imidazo[4,5-c]pyridin-1-yl)-2-hydroxycyclohexyl)thiazole-2-carboxamide] |
| 1 to 5 |  | ≤ 0.1 | E | O=C(N[C@H]1CCC[C@@H](n2c(-c3ccccc3C(=O)O)nc3cnc(-n4nccn4)cc32)C1)c1ncc(C(F)F)s1 [Example 99, 2-(1-((1R,3S)-3-(5-(difluoromethyl)thiazole-2-carboxamido)cyclohexyl)-6-(2H-1,2,3-triazol-2-yl)-1H-imidazo[4,5-c]pyridin-2-yl)benzoic acid] |
